pIC50: −log10 of the molar value. “Also recorded” adds a separate entry of the source. Counter-ions that a name gives are not always drawn. Like-named read-outs stand apart in the source and are kept apart here.
Tests used:
human 5-HT1A receptor = target: T1, human 5-HT1A receptor (Homo sapiens, UniProt P08908); assay: Human 5-HT1A radioligand binding assay ([3H]-8-Hydroxy-DPAT)
T1 sequence (P08908 1-422): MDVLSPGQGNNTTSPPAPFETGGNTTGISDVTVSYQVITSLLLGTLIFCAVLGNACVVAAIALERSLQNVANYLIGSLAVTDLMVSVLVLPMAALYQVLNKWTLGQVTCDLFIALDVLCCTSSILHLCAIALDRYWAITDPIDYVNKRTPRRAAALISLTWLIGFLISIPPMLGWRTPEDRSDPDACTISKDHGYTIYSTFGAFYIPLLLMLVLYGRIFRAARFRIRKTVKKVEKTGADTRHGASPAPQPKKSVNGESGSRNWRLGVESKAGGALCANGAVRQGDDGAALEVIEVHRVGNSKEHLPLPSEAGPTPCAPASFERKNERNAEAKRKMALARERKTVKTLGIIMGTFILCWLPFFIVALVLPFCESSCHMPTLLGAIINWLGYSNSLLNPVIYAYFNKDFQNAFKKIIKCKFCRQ
Description: The objective of this study was to evaluate the binding properties of test compounds on 5-hydroxytryptamine receptor 1A.
• 1. The assay buffer was prepared following the table below.
pH was adjusted to 7.4 followed by […] sterile filtration • 1. 8 doses of reference and test compounds were prepared starting from 10 mM stock solution as required by 5-fold serial dilutions with 100% (v/v) DMSO. • 2. UniFilter-96 GF/B Plate was Pretreated: • i. 50 μl/well of 0.5% (v/v) PEI was added to UniFilter-96 GF/B plates. The plates were sealed and incubated at 4° C. for 3 hrs. • ii. After incubation, the plates were washed 3 times with ice-cold wash buffer (50 mM Tris, pH7.4).
• i. Cell membrane was diluted with assay buffer and 100 μl/well was added to 96 round well plates to reach a concentration of 20 μg/well. • ii. 8 concentrations of reference or test compounds were prepared and 50 μl/well was added to 96 round deep well plates. • iii. [3H]-8-Hydroxy-DPAT was diluted with assay buffer to 2 nM (4× final concentration) and 50 μl/well was added to 96 round well plates. • 4. The plate was centrifuged at 1000 rpm for 30 secs and then agitated at 600 rpm, R.T. for 5 min. • 5. The plates were sealed and the plate was incubated at 27° C. for 90 min. • 6. The incubation was stopped by vacuum filtration onto GF/B filter plates followed by 4 times washing with ice-cold wash buffer (50 mM Tris, pH7.4). • 7. The plates were dried at 37° C. for 45 min. • 8. The filter plates were sealed and 40 μl/well of scintillation cocktail was added. • 9. The plate was read by using a Microbeta^2 microplate counter.
• 1. For reference and test compounds, the results were expressed as % Inhibition, using the normalization equation: N=100-100×(U−C2)/(C1−C2), where U is the unknown value, C1 is the average of high controls, and C2 is the average of low controls. • 2. The IC50 was determined by fitting percentage of inhibition as a […] of compound concentrations with Hill equation using XLfit. Results and Discussion

[1] = Human, rat and mouse liver microsomes stability (overall conclusion); format: in vitro ADME; conditions: 60-minute time period
Description: This study was performed in duplicate.
All calculations were carried out using Microsoft Excel.
All calculations were carried out using Microsoft Excel. Peak areas were determined from extracted ion chromatograms.

in vitro [2] = conditions: human, plasma
Description: (§1) The stock solution of test compound was prepared in DMSO and diluted at the final concentration of 200 μM.
(§2) • a. 2.5 μL of 200 μM or 1 mM test compound or control compound solution was spiked to 497.5 μL plasma to reach a final concentration of 1 μM or 5 μM. The final concentration of organic solvents was 0.5%. The assay was performed in duplicated. • b. The reaction samples were incubated at 37° C. at approximately 60 rpm in a water bath. • c. Aliquots of 50 μL were taken from the reaction samples at 0, 30, 60, 120, 180 and 240 minutes. The reaction was stopped by the addition of 7 volumes of cold acetonitrile containing internal standards (IS: 100 nM alprazolam, 200 nM imipramine, 200 nM labetalol and 2 μM ketoprofen). • d. All samples were vortexed for 2 minutes, followed by centrifugation at 3,220 g for 30 minutes to precipitate proteins. 100 μL of the supernatant was transferred to a new plate. The supernatant was diluted with ultrapure water according to the LC-MS signal response and peak shape.
(§3) Samples were Analyzed by LC-MS/MS. • LC system: Shimadzu • MS analysis: Triple Quad™ 6500+ from AB Inc (Canada) with an ESI interface • Column temperature: 40° C. • Column: Xselect® Hss T3 2.5μ (2.1×30 mm) coupled with preguard column • Mobile phase: 0.1% formic acid in water (A) and 0.1% formic acid in acetonitrile (B)
(§4) All calculations were carried out using Microsoft Excel. Remaining percentages of parent compounds at each time point were estimated by determining the peak area ratios from extracted ion chromatograms.

in vitro [3] = conditions: mouse, plasma
Description: as §1, §2, §3, §4

in vitro [4] = conditions: dog, plasma
Description: as §1, §2, §3, §4

in vitro [5] = conditions: human
Description: (§5) The Caco-2 cell culture medium was prepared consisting of Dulbecco's Modified Eagle's Medium (DMEM) with high glucose and L-glutamine supplemented with 10% FBS, 1× penicillin-streptomycin mixture and 1× non-essential amino acids (NEAA). • 2. The 50 μL of culture medium was added to each well of the Transwell insert. Transwell insert was removed from reservoir and 25 mL of culture medium was added. • 3. Incubated at 37° C., 5% CO2 for 1 hour. Plates were ready for cell seeding. • 4. The cells were cultivated in T-75 flasks in a cell culture incubator set at 37° C., 5% CO2, 95% relative humidity. The cells were allowed to reach 80-90% confluence before detaching and splitting. • 5. The cultivated cells were rinsed in T-75 flasks with 5 mL PBS. Aspirated off, 1.5 mL trypsin/EDTA was added, and incubated at 37° C. for approximately 5 to 10 minutes or until the cells detach and float. Trypsin/EDTA was inactivated by adding excess serum containing medium. • 6. The cell suspension was moved to a conical tube and cells were pelleted by centrifugation at 120×g for 10 minutes. • 7. The cells were resuspended in seeding medium at a density of 6.86×10^5 cells/mL. This cell concentration can be used to seed 2.40×10^5 cells/cm^2. […] Seeding and Feeding of Caco-2 Cells in Transwell Plates • 1. 50 μL of above cell suspension was added to each well of a previously prepared Transwell plate. • 2. The plate was incubated for 14-18 days. The medium was replaced every other day, beginning no sooner than 48 hours after initial plating. • 3. The procedure for medium changes was as follows. The plate was removed from incubator and placed in hood. The medium was aspirated from reservoir and each Transwell insert. 75 μL of culture medium was added to each well of Transwell inserts and 25 mL of culture medium was added to reservoir tray. The plate was returned to incubator.
(§6) When the 14-day Caco-2 cultured cells have reached confluence and are differentiated, they were ready to be used for transport studies. • 2. The medium was removed from reservoir and Transwell inserts. • 3. 75 μL of pre-warmed culture medium was added to each transwell insert and 25 mL of reservoir tray. • 4. The electrical resistance across the monolayer was measured using automated tissue resistance measuring system (World Precision Instruments, Sarasota, FL). • 5. The electrical resistance was recorded for each well. • 6. Once all wells were measured, the plate was returned to incubator. • 7. TEER of each well was calculated by the equation below. The TEER value of each well should be greater than 230 ohms-cm^2. TEER measurement (ohms)×Area of membrane (cm^2)=TEER value (ohm-cm^2)
(§7) The Caco-2 plate was removed from the incubator. Next, the monolayer was washed, and the volume exchanged two times using pre-warmed HBSS (10 mM HEPES, pH 7.4). Then the plate was incubated for 30 minutes at 37° C. • 1 mM stock solutions of control compounds and test compound(s) were prepared in DMSO and diluted with HBSS (10 mM HEPES, pH 7.4) to reach the final concentration of 5 μM. The final concentration of DMSO in the incubation system was 0.5%. Digoxin, prazosin and propranolol were used as control compounds in this assay. • 3. HBSS (10 mM HEPES, pH 7.4) was removed after 30 minutes pre-incubation. • 4. The rate of drug transport was incubated in the apical to basolateral direction. 75 μL of the control compounds and test compound was added to the Transwell insert (apical compartment). The wells were filled in the receiver plate (basolateral compartment) with 235 μL of HBSS (10 mM HEPES, pH 7.4). • 5. The rate of drug transport was determined in the basolateral to apical direction. 235 μL of the control compounds and test compound(s) was added to the receiver plate wells (basolateral compartment). The Transwell insert (apical compartment) was filled with 75 μL of HBSS (10 mM HEPES, pH 7.4). • 6. […] Incubated at 37° C. for 2 hours. • 8.

Rat plasma stability = conditions: for Remaining Percentage: rat plasma, 0 min
Description: as §1, §2, §3, §4

Dog plasma stability = conditions: for Remaining Percentage: dog plasma, 0 min
Description: as §1, §2, §3, §4

Human plasma stability = conditions: for Remaining Percentage: human plasma, 0 min
Description: as §1, §2, §3, §4

Mouse plasma stability = conditions: for Remaining Percentage: mouse plasma, 0 min
Description: as §1, §2, §3, §4

[6] = Intestinal mucosal permeation using Caco-2 cell monolayers; conditions: human
Description: as §5, §6, §7

5-HT2 receptor = conditions: rat brain, daily administration; cited from earlier work
human 5-HT2A receptor = human 5-HT2A receptor (Homo sapiens, UniProt P28223); conditions: human versus rat receptor; cited from earlier work
human 5-HT2A receptor, sequence (P28223 whole entry): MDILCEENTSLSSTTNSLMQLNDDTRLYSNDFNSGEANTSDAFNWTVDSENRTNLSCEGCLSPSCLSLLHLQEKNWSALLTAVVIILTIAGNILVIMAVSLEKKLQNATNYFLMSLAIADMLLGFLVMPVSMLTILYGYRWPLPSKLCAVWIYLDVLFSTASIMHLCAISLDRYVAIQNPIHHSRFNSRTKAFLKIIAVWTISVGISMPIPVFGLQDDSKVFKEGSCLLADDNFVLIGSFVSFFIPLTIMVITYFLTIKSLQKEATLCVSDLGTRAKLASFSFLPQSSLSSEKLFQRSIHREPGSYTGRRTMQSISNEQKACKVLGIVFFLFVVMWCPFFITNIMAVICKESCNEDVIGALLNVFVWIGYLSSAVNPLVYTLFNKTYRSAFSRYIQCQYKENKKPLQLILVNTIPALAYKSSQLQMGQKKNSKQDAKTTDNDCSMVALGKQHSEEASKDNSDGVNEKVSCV

[7] = target: 5-HT2A and 5-HT2C receptors; conditions: compared with LSD; cited from earlier work
frontal cortex = conditions: healthy participants, 15 or 20 mg orally; cited from earlier work
5-HT1A receptors = conditions: cited from earlier work
[8] = patients; psilocybin-assisted psychotherapy or supportive setting; cited from earlier work
[9] = test system: low attentive and low motivated rats; conditions: doses below the threshold for wet dog shake response; cited from earlier work
[10] = [3H]-8-Hydroxy-DPAT, 27° C., 90 min, read-out: h5-HT1A, IC50
[11] = Caco-2, pH 7.4, Percentage recovery A→B, apical to basolateral
[12] = Caco-2, pH 7.4, Percentage recovery B→A, basolateral to apical

## CC(C)N(CCc1c[nH]c2cccc(O)c12)C(C)C [Compound 7]
Human 5-HT1A receptor; [10]
  pIC50: 5.33

## CN(C)CCc1c[nH]c2cccc(OC(=O)CCCC(=O)Oc3cccc4[nH]cc(CCN(C)C)c34)c12 [Compound I-24, Bis(3-(2-(dimethylamino)ethyl)-1H-indol-4-yl) glutarate]
Human 5-HT1A receptor; [10]
  pIC50: 6.47
[1]
  metabolic stability (conclusion): rapidly metabolized
In vitro [2]
  remaining at 0.5 h: 0%
  remaining at 1 h: 0%
  remaining at 2 h: 0%
  remaining at 3 h: 0%
  remaining at 4 h: 0%
In vitro [3]
  remaining at 0.5 h: 0%
  remaining at 1 h: 0%
  remaining at 2 h: 0%
  remaining at 3 h: 0%
  remaining at 4 h: 0%
In vitro [4]
  half-life: 0.316 h
  remaining at 0.5 h: 32.9%
  remaining at 1 h: 11.2%
  remaining at 2 h: 0%
  remaining at 3 h: 0%
  remaining at 4 h: 0%
In vitro [5]; Caco-2, pH 7.4
  Papp A→B at 2 h, 5 µM: 0.27 ×10⁻⁶ cm/s
  Papp B→A at 2 h, 5 µM: 2.47 ×10⁻⁶ cm/s
  efflux ratio at 2 h, 5 µM: 9.16
In vitro [5]; [11]
  recovery at 2 h, 5 µM: 112%
In vitro [5]; [12]
  recovery at 2 h, 5 µM: 105%
Rat plasma stability
  Remaining Percentage: 100.00%
Dog plasma stability
  Remaining Percentage: 100.00%
Human plasma stability
  Remaining Percentage: 100.00%
Mouse plasma stability
  Remaining Percentage: 100.00%

## CC(C)N(CCc1c[nH]c2cccc(OC(=O)CCCC(=O)Oc3cccc4[nH]cc(CCN(C(C)C)C(C)C)c34)c12)C(C)C [Compound I-37, Bis(3-(2-(diisopropylamino)ethyl)-1H-indol-4-yl) glutarate dihydrochloride]
Human 5-HT1A receptor
  pIC50: 5.40
[1]
  metabolic stability (conclusion): rapidly metabolized
Rat plasma stability
  Remaining Percentage: 100.00%
Rat plasma stability; rat, plasma
  remaining at 0.5 h: 0%
  remaining at 1 h: 0%
  remaining at 2 h: 0%
  remaining at 3 h: 0%
  remaining at 4 h: 0%
Dog plasma stability
  Remaining Percentage: 100.00%
Dog plasma stability; dog, plasma
  half-life: 1.91 h
  remaining at 0.5 h: 82.6%
  remaining at 1 h: 70.5%
  remaining at 2 h: 50.5%
  remaining at 3 h: 31.6%
  remaining at 4 h: 24.2%
Human plasma stability
  Remaining Percentage: 100.00%
Human plasma stability; human, plasma
  remaining at 0.5 h: 0%
  remaining at 1 h: 0%
  remaining at 2 h: 0%
  remaining at 3 h: 0%
  remaining at 4 h: 0%
Mouse plasma stability
  Remaining Percentage: 100.00%
Mouse plasma stability; mouse, plasma
  remaining at 0.5 h: 0%
  remaining at 1 h: 0%
  remaining at 2 h: 0%
  remaining at 3 h: 0%
  remaining at 4 h: 0%
[6]; Caco-2, pH 7.4
  Papp A→B at 2 h, 5 µM: 0.54 ×10⁻⁶ cm/s
  Papp B→A at 2 h, 5 µM: 11.3 ×10⁻⁶ cm/s
  efflux ratio at 2 h, 5 µM: 21
[6]; [11]
  recovery at 2 h, 5 µM: 74.9%
[6]; [12]
  recovery at 2 h, 5 µM: 107%

## CN(C)CCc1c[nH]c2cccc(O)c12 [Psilocin, 4-hydroxy-N,N-dimethyltryptamine, reference compound]
In vitro [5]; Caco-2, pH 7.4
  Papp A→B at 2 h, 5 µM: 24.6 ×10⁻⁶ cm/s
  Papp B→A at 2 h, 5 µM: 18.7 ×10⁻⁶ cm/s

## CN(C)CCc1c[nH]c2cccc(OP(=O)(O)O)c12 [Psilocybin]
Human 5-HT1A receptor; [10]
  pIC50: 5.32
5-HT2 receptor
  5-HT2 receptor density: reduce 5-HT2 receptor density in rat brain
Human 5-HT2A receptor
  affinity for 5-HT2A receptor: stronger affinity for the human 5-HT2A receptor than for the rat receptor
[7]
  K(i): lower K(i) for both 5-HT2A and 5-HT2C receptors than LSD
Frontal cortex
  absolute metabolic rate of glucose: increased absolute metabolic rate of glucose in frontal, and to a lesser extent in other, cortical regions as well as in striatal and limbic subcortical structures
5-HT1A receptors
  activation of 5-HT1A receptors: activates 5-HT1A receptors
[8]
  relief of depression and anxiety: unprecedented positive relief of anxiety and depression; also recorded: significant and sustained anti-depressant and anxiolytic effects
[9]
  task performance: improved performance on the 5-choice serial reaction time and progressive ratio tasks

From patent US20260327250A1, “3-ETHYLAMINO-INDOLE DIMERS AS SEROTONERGIC AGENTS USEFUL FOR THE TREATMENT OF DISORDERS RELATED THERETO” (MINDSET PHARMA INC., priority 2022, published 2026)
